From US12569499B2, “Intravenous formulations of RK-33” (NATSAR PHARMACEUTICALS, INC., priority 2021, dated 2026)
≈ marks a conversion by molar mass, not a printed value.

Columns and labels:
[1] = target: DDX3 (Homo sapiens, UniProt O00571); conditions: Oncogene 27(28): 3912-3922 (2008); cited from earlier work
[2] = Formulation appearance (color, visual precipitation, clarity); assay type: physicochemical; conditions: with 50% PEG 200 and 4% HPβCD
Method: RK-33 formulations comprising of various combinations of solvents and polymers were prepared and analyzed for color, visual precipitation and clarity.
Formulations comprising of various combinations of solvents and polymers were prepared with an intralipid emulsion used to provide calories to patients who receive an injection into the vein. The prepared formulations were then analyzed for color, visual precipitation and clarity.
Formulations comprising of various combinations of solvents and polymers, including Captisol®, were prepared. The formulations were analyzed for color, visual precipitation and clarity.

[3] = test system: tumor cells; conditions: sarcoma, breast, prostate, colorectal, lung, medulloblastoma; cited from earlier work
[4] = Qualitative solubility of RK-33 in various solubilizers; assay type: physicochemical; conditions: for solubility: thermodynamic from solid
Method: The degree of solubility of RK-33 in various solubilizers were tested. RK-33 was added to the solubilizer and observed for formation of homogenous molecular dispersion and physical appearance.

Sequence of DDX3 (O00571 whole entry): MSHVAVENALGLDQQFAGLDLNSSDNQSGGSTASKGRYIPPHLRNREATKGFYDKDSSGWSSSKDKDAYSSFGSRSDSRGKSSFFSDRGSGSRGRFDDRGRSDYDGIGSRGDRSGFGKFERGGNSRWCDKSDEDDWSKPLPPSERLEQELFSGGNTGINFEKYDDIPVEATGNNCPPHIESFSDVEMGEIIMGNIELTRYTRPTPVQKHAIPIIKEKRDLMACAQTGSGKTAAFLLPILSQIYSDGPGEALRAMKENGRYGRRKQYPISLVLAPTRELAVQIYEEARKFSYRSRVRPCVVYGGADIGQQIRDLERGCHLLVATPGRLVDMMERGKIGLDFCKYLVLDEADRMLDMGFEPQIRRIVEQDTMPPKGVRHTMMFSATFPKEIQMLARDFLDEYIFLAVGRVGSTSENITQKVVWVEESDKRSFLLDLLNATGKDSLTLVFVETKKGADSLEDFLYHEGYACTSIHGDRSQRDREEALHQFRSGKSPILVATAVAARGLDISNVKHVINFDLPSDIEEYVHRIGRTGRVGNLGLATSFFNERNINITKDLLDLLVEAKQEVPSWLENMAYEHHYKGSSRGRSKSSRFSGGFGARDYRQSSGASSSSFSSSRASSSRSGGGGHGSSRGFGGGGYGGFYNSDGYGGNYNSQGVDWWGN

RK-33 formulation concentration achieved [2]: 2.5 mg/mL
solubility ([4]; aqueous buffer, solvent Water (pH 4)): < 1000 µg/mL
solubility ([4]; aqueous buffer, solvent Water (pH 8)): < 1000 µg/mL
solubility ([4]; aqueous buffer, solvent Water (pH 10)): < 1000 µg/mL
solubility ([4]; oil or lipid, solvent Corn oil): < 1000 µg/mL
solubility ([4]; oil or lipid, solvent Gelucire 44/14): < 1000 µg/mL
solubility ([4]; oil or lipid, solvent Labrafil 1944CS): < 1000 µg/mL
solubility ([4]; oil or lipid, solvent Miglyol 810): < 1000 µg/mL
solubility ([4]; oil or lipid, solvent Oleic acid): < 1000 µg/mL
solubility ([4]; oil or lipid, solvent Olive oil): < 1000 µg/mL
solubility ([4]; organic solvent or mixture, solvent Benzyl alcohol): > 250000 µg/mL
solubility ([4]; organic solvent or mixture, solvent DMA): > 100000 µg/mL
solubility ([4]; organic solvent or mixture, solvent DMSO): > 100000 µg/mL
solubility ([4]; organic solvent or mixture, solvent Ethanol): < 1000 µg/mL
solubility ([4]; organic solvent or mixture, solvent Glycerin): < 1000 µg/mL
solubility ([4]; organic solvent or mixture, solvent Glycerol formal): > 75000 µg/mL
solubility ([4]; organic solvent or mixture, solvent NMP): > 100000 µg/mL
solubility ([4]; organic solvent or mixture, solvent PEG 200): ~12000 µg/mL (≈ 28000 µM)
solubility ([4]; organic solvent or mixture, solvent PEG300): ~10000 µg/mL (≈ 23300 µM)
solubility ([4]; organic solvent or mixture, solvent PEG 400): 5000 to 10000 µg/mL (≈ 11700 to 23300 µM)
solubility ([4]; organic solvent or mixture, solvent PG): 1000 to 5000 µg/mL (≈ 2330 to 11700 µM)
solubility ([4]; simulated gastric fluid, solvent Water (pH 1.6)): < 1000 µg/mL
Observation ([4]; solvent Benzyl alcohol): Clear, yellow colored solution
Observation ([4]; solvent Corn oil): Dispersion
Observation ([4]; solvent DMA): Clear, yellow colored solution
Observation ([4]; solvent DMSO): Clear, yellow colored solution
Observation ([4]; solvent Ethanol): Yellow dispersion
Observation ([4]; solvent Gelucire 44/14): Dispersion
Observation ([4]; solvent Glycerin): Dispersion
Observation ([4]; solvent Glycerol formal): Clear, yellow colored solution
Observation ([4]; solvent Labrafil 1944CS): Dispersion
Observation ([4]; solvent Miglyol 810): Dispersion
Observation ([4]; solvent NMP): Clear, yellow colored solution
Observation ([4]; solvent Oleic acid): Dispersion
Observation ([4]; solvent Olive oil): Dispersion
Observation ([4]; solvent PEG 200): Clear, yellow colored solution
Observation ([4]; solvent PEG300): Clear, yellow colored solution
Observation ([4]; solvent PEG 400): Clear, yellow colored solution
Observation ([4]; solvent PG): Clear, yellow colored solution
Observation ([4]; solvent Water): Poor wettability
Observation ([4]; solvent Water (pH 1.6)): Poor wettability
Observation ([4]; solvent Water (pH 4)): Poor wettability
Observation ([4]; solvent Water (pH 8)): Poor wettability
Observation ([4]; solvent Water (pH 10)): Poor wettability
solubility ([4]; solvent Water): < 1000 µg/mL
SMILES: COc1ccc(Cn2c3ncnc4c(ncn4Cc4ccc(OC)cc4)c-3nc2=O)cc1 [RK-33]
Effect of targeting DDX3 on cells [1]: promotes cell death
Inhibiting the growth of tumor cells [3]: effective results in inhibiting the growth of tumor cells
